Experimental data reported in patent US20260265684A1, “EIMERIA VACCINE” (priority 2024, published 2026).

How the values were obtained:
[1] = tested on: E. necatrix oocysts; test: Sporulation in different media: sporulation and post-sporulation oocyst count (Example 1); assay type: cell-based; conditions: for relative difference in oocyst counts compared to group 1 (percentage difference), R1: replicate R1, post sporulation; for relative difference in oocyst counts compared to group 1 (percentage difference), R3: replicate R3, post sporulation
[2] = tested on: E. mitis oocysts; assay type: cell-based; conditions: for relative difference in oocyst counts compared to group 1 (percentage difference), R1: replicate R1, post sporulation; for relative difference in oocyst counts compared to group 1 (percentage difference), R3: replicate R3, post sporulation
[3] = tested on: Eimeria oocysts (E. acervulina, E. brunetti, E. maxima, E. mitis, E. necatrix and E. tenella); test: Sporulation of Eimeria oocysts in different media, all species (Example 1); assay type: cell-based; conditions: for Average sporulation % across all species: 48 hours at 27° C., 150 rpm, three replicates, six species
[4] = tested on: E. acervulina oocysts; assay type: cell-based; conditions: for relative difference in oocyst counts compared to group 1 (percentage difference), R1: replicate R1, post sporulation; for relative difference in oocyst counts compared to group 1 (percentage difference), R3: replicate R3, post sporulation
[5] = tested on: E. brunetti oocysts; test: Sporulation in different media: sporulation and post-sporulation oocyst count (Example 1); assay type: cell-based; conditions: for relative difference in oocyst counts compared to group 1 (percentage difference), R1: replicate R1, post sporulation; for relative difference in oocyst counts compared to group 1 (percentage difference), R3: replicate R3, post sporulation
[6] = tested on: E. tenella oocysts; assay type: cell-based; conditions: for relative difference in oocyst counts compared to group 1 (percentage difference), R1: replicate R1, post sporulation; for relative difference in oocyst counts compared to group 1 (percentage difference), R3: replicate R3, post sporulation
[7] = tested on: E. maxima oocysts; assay type: cell-based; conditions: for relative difference in oocyst counts compared to group 1 (percentage difference), R1: replicate R1, post sporulation; for relative difference in oocyst counts compared to group 1 (percentage difference), R3: replicate R3, post sporulation
[8] = tested on: microorganisms other than the Eimeria; assay type: cell-based; conditions: replicate sterility averaged across the 6 species; FIG. 13
[9] = tested on: microorganisms other than the Eimeria; assay type: cell-based; conditions: across 1%, 3% and 5% solids and all species
[10] = tested on: Eimeria oocysts; test: Sporulation at variable solids content (Example 2); assay type: cell-based; conditions: 1%, 3% and 5% solids
[11] = tested on: Staphylococcus aureus ATCC 6538; conditions: after the 48 hours, 27° C.; FIG. 18A
Method: (§1) Each organism was exposed to each chemical mimicking the duration and conditions they would be used with for sporulation or sterilisation.
(§2) Organism suspensions were prepared by sub-culturing onto an appropriate growth plate and incubating under standard conditions. The growth was harvested and suspended in appropriate media. The starting titre for most organisms once inoculated into the test media was approximately ≤10^6 CFU/mL.
(§3) 0.1 mL of the harvested bacterial or fungal suspension was added to 9.9 mL of the solution being tested in a sterile glass vial (McCartney container). The inoculated solutions were incubated at 27° C. Zero hours samples were done with sterile water and not the solution being tested to determine a baseline for log reduction calculations. At the appropriate time point, 1 mL of sample was combined with 9 mL of sodium thiosulfate neutralizer (the 10:1 dilution). Serial dilutions in Peptone water (PEP) from 10^−2 to 10^−6 were plated out onto either TSA (bacterial) or SDA (fungal) plates. The 10^−1 dilution in neutraliser was also plated. Plates were incubated according to the organisms' requirements and the number of colonies counted at the end of the incubation period.

[12] = tested on: Candida albicans ATCC 10231; conditions: 27° C., FIG. 18A
Method: as §1, §2, §3

[13] = tested on: Pseudomonas aeruginosa ATCC 9027; conditions: 27° C.; FIG. 18A
Method: as §1, §2, §3

[14] = tested on: E. mitis oocysts; test: Sporulation in 2% Proxitane with anionic detergents, follow up trial (Example 4); assay type: cell-based; conditions: detergent 0.05% in 2% Proxitane; FIG. 19
Method: (§4) The 2% Proxitane (~1000 ppm peracetic acid) sporulation media was prepared as described in Example 1. Detergents were added to the 2% Proxitane (~1000 ppm peracetic acid) solution at two concentrations: 0.05% solution and 0.5% solution. A 30% solution of Sarkosyl in 2% Proxitane (~1000 ppm peracetic acid) was prepared first before diluting to the desired concentration. Docusate dissolved in water with heat (up 90° C.) before adding the Proxitane.
(§5) Oocysts were sporulated in 15 or 50 mL tubes with at least 80% headspace (i.e. 10 mL liquid in 50 mL tube max). The amount of solids (unsporulated oocysts+debris) in this experiments was set to 2%, i.e. a solids ratio of 1:49.
(§6) All samples were incubated at 27° C. and about 150 rpm in the shaking incubator for 48 hours. Following sporulation, samples were either stored at 4-8° C. or evaluated immediately.
(§7) Sporulation level and oocyst health was evaluated as described in Example 1.

[15] = tested on: E. maxima oocysts; test: Sporulation in 2% Proxitane with detergents, initial experiments (Example 4); assay type: cell-based
Method: as §4, §5, §6, §7

Compound	relative difference in oocyst counts compared to group 1 (percentage difference), R1 [1]	relative difference in oocyst counts compared to group 1 (percentage difference), R3 [1]	relative difference in oocyst counts compared to group 1 (percentage difference), R1 [2]	relative difference in oocyst counts compared to group 1 (percentage difference), R3 [2]	Average sporulation % across all species [3]	relative difference in oocyst counts compared to group 1 (percentage difference), R1 [4]	relative difference in oocyst counts compared to group 1 (percentage difference), R3 [4]	relative difference in oocyst counts compared to group 1 (percentage difference), R1 [5]	relative difference in oocyst counts compared to group 1 (percentage difference), R3 [5]	relative difference in oocyst counts compared to group 1 (percentage difference), R1 [6]	relative difference in oocyst counts compared to group 1 (percentage difference), R3 [6]	relative difference in oocyst counts compared to group 1 (percentage difference), R1 [7]	relative difference in oocyst counts compared to group 1 (percentage difference), R3 [7]	sterility [8]	also measured
O=CCCCC=O [0.2% glutaraldehyde, glutaraldehyde]	7%	−61.49%	8.68%	1%	78%	1.31%	−1%	3%	91%	3.12%	30.08%	3%	−3%	–	–
OO [0.5% hydrogen peroxide, hydrogen peroxide]	25%	−15.15%	29.90%	17%	81%	11.16%	−298%	−13%	92%	17.92%	26.75%	5%	−13%	80%	sporulating oocysts compared with control group 1 ([3]; averaged sporulation from 3 replicates, across all the species tested (FIGS. 7-12)): comparable to or better than control group 1; samples failing sterility (fail rate) [9]: 21%; sporulation compared with dichromate (in words) [10]: good sporulation compared to dichromate except with 5% solids; viability after treatment [11]: still viable; reduction of titre before going back up at the last time point [12]: 4.32 logs; viability after treatment ([12]; after the 48 hours): still viable; time to inactivation [13]: within the first hour
O=S(=O)([N-]Cl)c1ccccc1.[Na+] [1% chloramine B, chloramine B]	24%	−27.13%	12.16%	8%	81%	9.43%	−137%	−7%	91%	−1.16%	40.83%	−4%	−4%	–	–
CCCCCCCCCCCC(=O)N(C)CC(=O)[O-].[Na+] [sarkosyl, Sarkosyl]	–	–	–	–	–	–	–	–	–	–	–	–	–	–	sticking of debris to oocyst walls [14]: sticking of debris to oocyst walls was found
[K+].[K+].[O]=[Cr](=[O])([O-])[O][Cr](=[O])(=[O])[O-] [2% potassium dichromate, potassium dichromate, reference compound]	–	–	–	–	–	–	–	–	–	–	–	–	–	failed to achieve sterility	sterility outcome (in words) [9]: failed to sterilise the material
CCCCCCCCCCCCOS(=O)(=O)[O-].[Na+] [SDS]	–	–	–	–	–	–	–	–	–	–	–	–	–	–	percent sporulation ([15]; detergent 0.5% in 2% Proxitane, 2% solids, 48 hours): 40%; sticking of debris and oocysts ([15]; detergent in 2% Proxitane, data not shown): reduce sticking; oocyst damage ([15]; upon prolonged storage): cause damage to the oocyst wall
